What was measured:
[1] = tested on: GATA1 bipotential progenitor (MEP progenitor) from human cord blood CD34+ cells; assay: HD-DoE 12-factor experiment optimized for maximum expression of HBA1 (stage 2); format: cell-based; conditions: 12-factor model optimized for maximum HBA1 expression; 3 days after stage 1
Method: To engineer the stage 2 media, first CD34+ cells from human cord blood cells were cultured for 5 days in stage 1 media (Table 1), which converts hematopoietic stem cells to a GATA1 bipotential progenitor (MEP progenitor). This progenitor has the potential to differentiate to erythroid and megakaryocyte lineages. To further guide the differentiation of GATA1 bipotential progenitor, an additional HD-DoE experiment was performed. […] The basis of this was a 12-factor HD-DoE experiment with focus on differentiation of cells toward the erythroid lineage for an additional 3 days after termination of stage 1 treatment.
To test the effectors, 96 different combinations of effectors generated using Design-of-Experiments compression through D-optimality were robotically prepared. The effector combinations were prepared in a basal media and were subsequently added to the cells, which were then allowed to differentiate. Three days later RNA extraction was performed, and gene expression was obtained using quantitative PCR analysis. The data were normalized and modeled using partial least squares regression analysis to the effector design, resulting in the generation of gene-specific models, which after model tuning for maximal Q2 predictive power, provided explanation of the effectors ability to control the expression of individual genes, combinatorically, and individually. Solutions within the tested space could then be explored to address desirability.
This model was derived from initial testing of twelve factors including: HB-EGF, Optiferrin, SR1, knockout serum, ibuprofen, GM-CSF, holo-transferrin, EPO, eltrombopag, Neuregulin 1, THI0019 and AICAR.

[2] = tested on: erythroid progenitors from GATA1+ MEP cells; assay: Factor criticality analysis (dynamic profile), stage 2 recipe; format: cell-based, human; design: unit not given here
Method: (§1) To assess the impact of the elimination of each validated factor identified for the stage 1 and 2 recipes as described in Example 1, dynamic profile analysis was used and compared the expression level of genes of interest in absence of each finalized factor while others are present.
In the stage 2 recipe, each of the five finalized factors was removed while the other four factors remained present and the expression levels of GATA1, HBA1, GYPA (CD235) and TFRC were assessed compared to the presence of all five factors. When EPO was removed, the values of GATA1 decreased from 1386 to 736, the values of HBA1 changed from 700 to 285, the values of GYPA decreased from 345 to 61 and the values of TFRC dropped from 2943 to 898. All changes represent a significant loss of expression of a desired gene.

[3] = tested on: CD34+ population of cells isolated from cord blood; assay: HD-DoE 8-factor experiment optimized for maximum expression of GATA1 (stage 1); format: cell-based, human; conditions: for factor contribution: 8-factor model optimized for maximum GATA1 expression, 3-day treatment
Method: The effector combinations were prepared in a basal media and were subsequently added to the cells, which were then allowed to differentiate. […] Solutions within the tested space could then be explored to address desirability.

[4] = tested on: MEP progenitor from CD34+ HSCs; assay: Factor criticality analysis (dynamic profile), stage 1 recipe; format: cell-based, human; design: unit not given here
Method: as §1
In the stage 1 recipe, each of the five finalized factors was removed while the other four factors remained present and the expression levels of GATA2, GATA1, CD36 and TFRC were assessed compared to the presence of all five factors.

HBA expression = assay: Refinement of stage 2 recipe: HBA expression modelling and cell number; format: cell-based, human; conditions: higher concentration: holo-transferrin 600 ug/mL, EPO 4 U/mL; or supplement added
Method: In order to refine the stage 2 recipe, more modelling experiments were conducted using the same factors as the stage 2 recipe but testing different concentrations of critical factors such as EPO and holo-transferrin. Additionally, because lipid inputs are critical for RBC differentiation, a commercial cholesterol supplement (Sigma) was tested.

CD34 cells = assay: HD-DoE 6-factor experiment optimized for maximum expression of GATA1; format: cell-based, human
Method: To test whether EPO or other commonly used cytokines are required for GATA1 induction, we conducted experiments with 6 factors in a range of concentrations. On this experiment CD34 cells were thawed and kept overnight in media containing SCF 10 ng/mL. On the next day, 48 different combinations of effectors were added to the cells, and SCF 5 ng/mL was kept in all the wells.

[5] = named factor removed, other four present

| Molecule | factor contribution [1] | GYPA expression ([2]; all five factors present) | HBA1 expression ([2]; all five factors present) | GYPA expression [2, 5] | HBA1 expression [2, 5] | factor contribution [3] | GATA1 expression ([4]; all five factors present) | GATA1 expression [4, 5] | also measured |
| --- | --- | --- | --- | --- | --- | --- | --- | --- | --- |
| NC(=O)c1ncn([C@@H]2O[C@H](CO)[C@@H](O)[C@H]2O)c1N [AICAR, reference compound] | 9 | 337 | 689 | 256 | 569 |  |  |  |  |
| C=C1C(=O)O[C@@H]2C[C@@]3(C)CCC[C@H](C)C3=C[C@H]12 [Alantolactone] |  |  |  |  |  | 8 | 510 | 460 | impact on GATA1 expression ([3]; 8-factor model, GATA1): supportive of GATA1 induction |
| NC1(c2ccc(-c3nc4ccn5c(=O)[nH]nc5c4cc3-c3ccccc3)cc2)CCC1 [MK2206] |  |  |  |  |  | 17 | 510 | 400 |  |
| CC(C)n1cnc2c(NCCc3ccc(O)cc3)nc(-c3csc4ccccc34)nc21 [SR1] | 7 |  | 700 |  | 597 | 6 | 510 | 410 | TFRC expression ([4]; all five factors present): 970; TFRC expression [4, 5]: 570 |
| EPO: EPOR agonist, erythropoietin | 31 | 345 | 700 | 61 | 285 |  |  |  | HBA expression (HBA expression): higher HBA expression; requirement for GATA1 induction (CD34 cells; 6-factor model): not required for GATA1 induction; GATA1 expression ([2]; all five factors present): 1386; TFRC expression ([2]; all five factors present): 2943; GATA1 expression [2, 5]: 736; TFRC expression [2, 5]: 898 |
| holotransferrin: Iron source |  | 330 | 688 | 170 | 500 |  |  |  | HBA expression (HBA expression): higher HBA expression; GATA1 expression ([2]; all five factors present): 1370; TFRC expression ([2]; all five factors present): 2883; GATA1 expression [2, 5]: 967; TFRC expression [2, 5]: 1703 |
| Activin A: a member of the TGFβ family (protein, UniProt P08476 311-426, looked up) Inhibin beta A chain: GLECDGKVNICCKKQFFVSFKDIGWNDWIIAPSGYHANYCEGECPSHIAGTSGSSLSFHSTVINHYRMRGHSPFANLKSCCVPTKLRPMSMLYYDDGQNIIKKDIQNMIVEECGCS |  |  |  |  |  |  |  |  | factor contribution (CD34 cells; 6-factor model optimized for maximum GATA1 expression, SCF 5 ng/mL in all wells): 33 |
